Columns and labels:
[1] = Chlorhexidine gluconate remaining after gamma irradiation, measured by HPLC; type: physicochemical; conditions: for Chlorhexidine gluconate after irradiation, % / Preservation, %: initial CHD 0.075 wt %
Protocol: An aqueous solution of silver nitrate salt (as the source of silver) was prepared so that the final concentration of silver in the solution was 60 ppm. A 20 wt % aqueous solution of chlorhexidine gluconate (CHD) was added to make the resulting concentration of 0.05 wt %. Finally, isopropanol was added to achieve the concentration of 4 wt % in the resulting solution. The sample was a transparent colorless liquid. Thermo Scientific Evolution 220 Spectrophotometer was used to monitor the absorbance spectra of the sample, which is shown in FIG. 1 as the dashed line. The 30 ml sample solution was then subjected to irradiation by gamma rays at 7 kGy. The resulting solution was a transparent brownish liquid showing a clear peak of absorption at the wavelength 412.7 nm (solid line in FIG. 1), which corresponds to the presence of silver nanoparticles. The sample of the irradiated solution was presented for imaging to Transmission Electron Microscope (JEOL JEM 2100F) and an example of the image is shown in FIG. 2, which confirms formation of silver nanoparticles in the irradiated solution. The nanoparticles have quasi-spherical form and a visible conjugated layer around their surface. […]
Two identical samples were prepared as described in Example 1, each of them being colorless transparent aqueous solutions containing 60 ppm of silver in the form of silver nitrate, 0.5 wt % of polyvinyl alcohol, 4 wt % of isopropanol and 0.05 wt % of chlorhexidine gluconate. The samples were subjected to different doses of gamma irradiation—the first sample to 7 kGy and the second to 3 kGy. After irradiation the color of the samples changed to the transparent brown.
To evaluate any influence of the amount and the nature of the stabilizing agent, three different samples were prepared as described in Example 1. Each of them contained 30 ppm of silver in the form of silver nitrate and 0.05 wt % of chlorhexidine gluconate in an aqueous solution. The first sample additionally contained 0.5 wt % of polyvinyl alcohol (PVA) and 10 wt % of isopropanol, the second—2 wt % of polyvinyl alcohol and 10 wt % of isopropanol and the third sample additionally contained 1 wt % of polyvinylpyrrolidone (PVP) and 4 wt % of isopropanol. All three samples represented clear colorless liquids before irradiation. The irradiated at 10 kGy samples changed their color to the transparent brown color of different intensities. The concentration of chlorhexidine gluconate was measured using HPLC and determined as 0.015 wt % in the first and the second sample and 0.016 wt % in the third sample. The UV-vis spectra of all three samples show formation of silver nanoparticles, with the only difference that in the sample which contained PVP the nanoparticles are larger than in those which contained PVA (FIG. 5; the “shoulder” of the small dashed line indicates presence of nanoparticles larger than 100 nm).
To evaluate any difference caused by the initial amount of chlorhexidine gluconate, two samples were prepared as in Example 1, but one of them contained 0.05 wt % of chlorhexidine gluconate and another sample contained 0.075 wt % of chlorhexidine gluconate before irradiation. Both samples were irradiated at 7 kGy, by the action of which the nanoparticles of silver were formed in both samples.
To evaluate the influence of the amount of silver present in the form of a silver salt as a precursor for nanoparticles formation, three different samples were prepared as described in Example 1. Each of them contained 0.075 wt % of chlorhexidine gluconate, 0.5 wt % of polyvinyl alcohol and 4 wt % of isopropanol in an aqueous solution. Silver nitrate was added to each of the samples so that the concentration of silver in the samples was 15 ppm, 30 ppm and 60 ppm. All the samples were transparent colorless solutions. They were subjected to gamma irradiation at 7 kGy and the concentration of chlorhexidine gluconate was measured consequently using HPLC. […]

[2] = as above; type: physicochemical
[3] = Example 1: Ag 60 ppm (silver nitrate), initial CHD 0.05 wt %, isopropanol 4 wt %, gamma 7 kGy
[4] = Example 2: Ag 60 ppm, PVA 0.5 wt %, isopropanol 4 wt %, initial CHD 0.05 wt %, gamma 7 kGy
[5] = Example 4, first sample: initial CHD 0.05 wt %, silver nitrate, gamma 7 kGy
[6] = Example 4, second sample: initial CHD 0.075 wt %, silver nitrate, gamma 7 kGy
[7] = Example 5: Ag 15 ppm, PVA 0.5 wt %, isopropanol 4 wt %, gamma 7 kGy
[8] = Example 5: Ag 30 ppm, PVA 0.5 wt %, isopropanol 4 wt %, gamma 7 kGy
[9] = Example 5: Ag 60 ppm, PVA 0.5 wt %, isopropanol 4 wt %, gamma 7 kGy
[10] = Example 9: Au 30 ppm (chloroauric acid), isopropanol 4 wt %, initial CHD 0.05 wt %, gamma 3 kGy

[H]/N=C(\N/C(=N/[H])NCCCCCCNC(=N)NC(=N)Nc1ccc(Cl)cc1)Nc1ccc(Cl)cc1 [chlorhexidine gluconate]
concentration of chlorhexidine gluconate in the irradiated solution [1, 3]: 0.0295 wt % | rate of preservation compared to the initial level before irradiation [1, 3]: 59% | rate of preservation ([1]; Example 2: Ag 60 ppm, PVA 0.5 wt %, isopropanol 4 wt %, initial CHD 0.05 wt %, gamma 3 kGy): 79% | chlorhexidine gluconate after irradiation [1, 4]: 0.0294 wt % | rate of preservation [1, 4]: 58.8% | concentration of chlorhexidine gluconate after irradiation ([1]; Example 3, first sample: Ag 30 ppm, initial CHD 0.05 wt %, PVA 0.5 wt %, isopropanol 10 wt %, gamma 10 kGy): 0.015 wt % | concentration of chlorhexidine gluconate after irradiation ([1]; Example 3, second sample: Ag 30 ppm, initial CHD 0.05 wt %, PVA 2 wt %, isopropanol 10 wt %, gamma 10 kGy): 0.015 wt % | concentration of chlorhexidine gluconate after irradiation ([1]; Example 3, third sample: Ag 30 ppm, initial CHD 0.05 wt %, PVP 1 wt %, isopropanol 4 wt %, gamma 10 kGy): 0.016 wt % | concentration of chlorhexidine gluconate after irradiation [1, 5]: 0.0294 wt % | preservation rate [1, 5]: 58.8% | concentration of chlorhexidine gluconate after irradiation [1, 6]: 0.052 wt % | preservation rate [1, 6]: 69.3% | Chlorhexidine gluconate after irradiation, % [1, 7]: 0.043% | Preservation, % [1, 7]: 57.33% | Chlorhexidine gluconate after irradiation, % [1, 8]: 0.049% | Preservation, % [1, 8]: 65.33% | Chlorhexidine gluconate after irradiation, % [1, 9]: 0.052% | Preservation, % [1, 9]: 69.33% | preservation [1, 10]: 51.6% | presence of chlorhexidine in the irradiated sample ([2]; Example 8 (comparative): gold nanoparticles made chemically with ascorbic acid, CHD 0.05 wt % added afterwards, gamma 7 kGy): not detected | chlorhexidine gluconate detected after irradiation [2, 10]: 0.0258 wt %
